Assay results published in paper PMC12584752, “Covalent fragment screening to inhibit the E3 ligase activity of bacterial NEL enzymes SspH1 and SspH2” (RSC Chemical Biology, 2025).
Entries after “also recorded” stand apart in the source; their conditions may differ.

What was measured:
Test in all cases: Intact LC-MS labelling selectivity
Type in all cases: binding
Conditions in all cases: dilution series 100–6.25 μM, 24 hours at 4 °C
[1] = target: T1, DUB OTUD4 (Homo sapiens, UniProt Q01804)
T1 construct: OTUD4 aa 1–156; His-tag (N, cleaved yes); made in house; host or cells: E. coli BL21
T1 sequence (Q01804 1-156): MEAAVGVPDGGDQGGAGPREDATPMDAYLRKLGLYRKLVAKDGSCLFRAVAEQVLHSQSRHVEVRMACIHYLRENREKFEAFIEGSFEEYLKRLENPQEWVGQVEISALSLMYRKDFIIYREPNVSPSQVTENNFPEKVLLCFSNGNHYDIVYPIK
Method: (§1) Fig. 3 Validation of HTC hit compounds by intact MS. Labelling heatmaps of dilution series (100–6.25 μM) of compounds 4–10 with (A) WT SspH1 and (B) C492K SspH1. Labelling heatmaps of dilution series of (C) compound 6 and (D) compound 7 with bacterial and human ubiquitin binding proteins. Recombinant proteins were incubated at either 1.0 or 0.5 μM with 50 μM fragments for 24 hours at 4 °C, before fragment labelling was analysed by intact LC-MS. Bacterial proteins are shown in bold and human proteins in italic fonts. (E)–(H) Kinetics analyses: time courses (0–12 hours) of compound labelling (100–1.56 μM) of SspH1 and SspH2 (0.5 μM) for (E) SspH1 and compound 7, and (F) SspH2 and compound 6. Measurements were performed in technical triplicates. Labelling percentages were plotted against time in GraphPad Prism v.10, and curves fitted separately for each replicate using one-phase association, with constraints Y0 = 0 and plateau = highest labelling percentage. Graphs for SspH1 and compound 6, and SspH2 and compound 7 are shown in Fig. S4A and B. Rate constants (kobs, as given by Graphpad Prism calculated K values) were plotted against fragment concentration in triplicate for (G) SspH1 and (H) SspH2. Straight lines were fitted with constraint Yintercept = 0. For SspH2 kinetics, 100 μM kobs was outside the linear range.
(§2) To mitigate the risk of selecting compounds which indiscriminately recognise ubiquitin binding proteins, we next performed preliminary selectivity studies with compounds 6 and 7 against human ubiquitin system proteins. […] In parallel, we tested the compounds against related NEL E3 ligases SspH2 and IpaH9.8. […] Our identification of dual SspH1 and SspH2 ligands is likely due to the high protein sequence similarity of SspH1 and SspH2 (60% for full length; 78% for NEL domains).
(§3) Dilution series experiments were performed as for 1st round screening. 1 μM OTUD4, OTUD5 or 0.5 μM HOIL, UbcH5A, SspH2, SspH1 C492K were incubated with 100–6.25 μM compounds for 24 hours at 4 °C, in 25 mM HEPES pH 7.5, 50 mM NaCl buffer. Intact protein LC-MS was performed as previously described.[40] The following deconvolution conditions were used for recombinant proteins studied in this work: […]

[2] = target: T2, RBR-type E3 HOIL (Homo sapiens, UniProt Q9BYM8)
T2 construct: HOIL aa 1–510; His-tag (N, cleaved yes); made in house; host or cells: E. coli BL21
T2 sequence (Q9BYM8 1-510): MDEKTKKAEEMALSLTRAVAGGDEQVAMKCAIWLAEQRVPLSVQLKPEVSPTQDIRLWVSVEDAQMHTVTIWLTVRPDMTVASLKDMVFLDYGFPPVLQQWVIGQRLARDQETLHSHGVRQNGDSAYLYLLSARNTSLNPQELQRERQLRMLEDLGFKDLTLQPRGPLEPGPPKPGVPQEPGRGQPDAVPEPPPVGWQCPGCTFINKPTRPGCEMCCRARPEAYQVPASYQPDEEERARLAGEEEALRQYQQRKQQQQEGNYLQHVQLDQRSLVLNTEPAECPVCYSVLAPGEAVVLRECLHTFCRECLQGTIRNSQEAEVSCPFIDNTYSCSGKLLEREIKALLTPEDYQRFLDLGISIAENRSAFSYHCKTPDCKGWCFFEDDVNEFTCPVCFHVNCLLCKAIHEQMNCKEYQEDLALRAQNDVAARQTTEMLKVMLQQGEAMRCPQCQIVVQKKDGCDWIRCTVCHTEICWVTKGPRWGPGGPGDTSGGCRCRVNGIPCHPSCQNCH
Method: as §1, §2, §3

[3] = target: T3, human E2 UbcH5A (Homo sapiens, UniProt P51668)
T3 construct: UbcH5A aa 1–147; His-tag (N, cleaved yes); made in house; host or cells: E. coli BL21
T3 sequence (P51668 whole entry, the tested form may be a part): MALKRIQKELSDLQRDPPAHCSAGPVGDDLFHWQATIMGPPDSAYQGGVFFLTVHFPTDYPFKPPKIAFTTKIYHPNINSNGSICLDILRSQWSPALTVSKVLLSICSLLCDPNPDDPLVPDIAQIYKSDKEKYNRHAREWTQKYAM
Method: as §1, §2, §3

[4] = target: T4, DUB OTUD5 (Homo sapiens, UniProt Q96G74)
T4 construct: OTUD5 aa 172–351; His-tag (N, cleaved yes); made in house; host or cells: E. coli BL21
T4 sequence (Q96G74 172-351): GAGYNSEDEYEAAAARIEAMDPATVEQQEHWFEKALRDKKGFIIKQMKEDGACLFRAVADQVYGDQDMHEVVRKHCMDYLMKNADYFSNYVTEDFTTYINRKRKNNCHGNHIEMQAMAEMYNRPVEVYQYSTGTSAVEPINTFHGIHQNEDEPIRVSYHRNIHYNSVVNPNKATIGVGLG
Method: as §1, §2, §3

[5] = target: T5, HECT-type E3 UBE3C (Homo sapiens, UniProt Q15386)
T5 construct: UBE3C; 693–1083; His-tag (N, cleaved yes); made in house; host or cells: E. coli BL21
T5 sequence (Q15386 693-1083): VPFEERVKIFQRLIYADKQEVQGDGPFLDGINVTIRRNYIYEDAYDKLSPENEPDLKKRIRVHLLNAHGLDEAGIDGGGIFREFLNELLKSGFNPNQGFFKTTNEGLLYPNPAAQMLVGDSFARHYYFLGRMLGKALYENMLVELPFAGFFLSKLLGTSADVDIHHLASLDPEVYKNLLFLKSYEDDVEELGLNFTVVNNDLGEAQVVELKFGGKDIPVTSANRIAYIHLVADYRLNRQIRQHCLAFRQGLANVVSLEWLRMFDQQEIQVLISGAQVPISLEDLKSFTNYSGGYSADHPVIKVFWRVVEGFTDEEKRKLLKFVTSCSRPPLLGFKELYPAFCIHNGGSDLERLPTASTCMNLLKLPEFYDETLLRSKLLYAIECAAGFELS
Method: as §1, §2, §3

Row | SMILES | labelling of OTUD4 [1] | labelling of HOIL [2] | labelling of UbcH5A [3] | labelling of OTUD5 [4] | labelling of UBE3C [5]
1 | Cc1cc(-c2nc3ccccc3n2C2CCN(C(=O)CCl)CC2)cc(C)c1O.Cl [compound 6] | minimal or no labelling | minimal or no labelling | minimal or no labelling; also recorded: not labelled | minimal or no labelling | minimal or no labelling
2 | Cl.O=C(CCl)N1CCC(n2c(-c3ccc(C(F)(F)F)cc3)nc3ccccc32)CC1 [compound 7] | minimal or no labelling | minimal or no labelling | minimal or no labelling; also recorded: not labelled | minimal or no labelling | minimal or no labelling
